Holding throughout (assay type): cell-based
One experiment relates to breast cancer cell. Briefly: Activity against breast cancer cells. The conditions noted are these: breast cancer cell growth; Tables 5A and B. The protocol:
(§1) Antitumor activity of the compounds and doxorubicin as a positive control was assessed by using the CellTiter-Blue Cell Viability Assay (Promega, #G8082) or CellTiter-Glow® Luminescent Cell Viability assay (Promega #G7572) according to the manufacturer's instructions. The compounds were tested at 5 or 6 concentrations in half-log increments (highest concentration 30 μM or 100 μM) in duplicate or triplicate well conditions.
(§2) Tumor cells were grown at 37° C. in a humidified atmosphere with 5% CO2 in RPMI 1640 or DMEM medium, supplemented with 10% (v/v) fetal calf serum and 50 μg/ml gentamicin for up to 20 passages, and were passaged once or twice weekly. Cells were harvested using TrypLE or PBS buffer containing 1 mM EDTA, and the percentage of viable cells is determined using a CASY Model TI cell counter (OMNI Life Science). Cells were harvested from exponential phase cultures, counted and plated in 96 well flat-bottom microtiter plates at a cell density depending on the cell line's growth rate (4,000-20,000 cells/well depending on the cell line's growth rate, up to 60,000 for hematological cancer cell lines) in RPMI 1640 or DMEM medium supplemented with 10% (v/v) fetal calf serum and 50 μg/ml gentamicin (140 μl/well). Cultures were incubated at 37° C. and 5% CO2 in a humidified atmosphere. After 24 h, 10 μl of test compounds or control medium were added, and left on the cells for another 72 h. Compounds were serially diluted in DMSO, transferred in cell culture medium, and added to the assay plates. The DMSO concentration was kept constant at <0.3% v/v across the assay plate. Viability of cells was quantified by the CellTiter-Blue® cell viability assay (Promega G8081) or CellTiter-Glow® Luminescent Cell Viability assay (Promega #G7572). Fluorescence (FU) was measured by using the EnSpire® multimode plate reader (Perkin Elmer) (excitation X=570 nm, emission λ=600 nm). Luminescence was measured with a microplate luminometer (Promega or PerkinElmer).
(§3) Sigmoidal concentration-response curves were fitted to the data points (test-versus-control, T/C values) obtained for each tumor model using 4 parameter non-linear curve fit (Charles River DRS Datawarehouse Software) or with GraphPad prism 5.02 software. IC50 values are reported as absolute IC50 values, being the concentration of test compound at the intersection of the concentration-response curves with T/C=50% Cell lines tested are presented in Table 1.

Another experiment relates to colon cancer cell. Put plainly: Activity against colon cancer cells. The following applies: colon cancer cell growth; summary of Tables 7A-7D. The protocol:
as §1, §2, §3

A further experiment relates to leukaemia cell. Put plainly: Activity against leukaemia cells. The following applies: leukaemia cell growth; Tables 13A and 13B. The protocol: as §1, §2, §3
The next experiment has as its system prostate cancer cell. Briefly: Activity against prostate cancer cells. The conditions noted are these: prostate cancer cell growth; text summary of Table 21. The protocol: as §1, §2, §3
A further experiment concerns MDA-MB-468. Briefly: Cell viability assay (CellTiter-Blue/CellTiter-Glow). The conditions noted are these: Homo sapiens; breast carcinoma cell line MDA-MB-468; absolute IC50; 72 h. As to the method:
as §1, §2, §3

For the next experiment, the system named is parental H69 cells. The experiment is described as above. The conditions noted are these: Homo sapiens, NCI-H69; SCLC parental H69 cells. As to the method:
as §1, §2, §3

For a further experiment, the system named is LoVo. Described as above. The following applies: Homo sapiens; colon carcinoma cell line LoVo; absolute IC50; 72 h. As to the method:
as §1, §2, §3

The next experiment concerns LNCaP. The experiment is described as above. The following applies: Homo sapiens; prostate carcinoma cell line LNCaP; absolute IC50; 72 h. As to the method:
as §1, §2, §3

The next experiment relates to PC-3. Described as above. The conditions noted are these: Homo sapiens; prostate carcinoma cell line PC-3; absolute IC50; 72 h. The protocol: as §1, §2, §3
The subject of the next experiment is 22Rv1. The experiment is described as above. The conditions noted are these: Homo sapiens; prostate carcinoma cell line 22Rv1; absolute IC50; 72 h. As to the method: as §1, §2, §3
The next experiment has as its system MCF-7. The experiment is described as above. The conditions noted are these: Homo sapiens, MCF7; breast carcinoma cell line MCF-7; absolute IC50; 72 h. The protocol: as §1, §2, §3
Another experiment concerns HL-60. The description is as above. The conditions noted are these: Homo sapiens; leukaemia cell line HL-60; absolute IC50; 72 h. The protocol: as §1, §2, §3
The next experiment relates to HCT-116. Described as above. The conditions noted are these: Homo sapiens; colon carcinoma cell line HCT-116; absolute IC50; 72 h. As to the method: as §1, §2, §3

The term IC50 denotes the point on the concentration scale where inhibition reaches its midpoint.

For `O=c1cc(-c2ccc(CCC[P+](c3ccccc3)(c3ccccc3)c3ccccc3)cc2)oc2c(O)c(O)ccc12` [SND176, (3-(4-(7,8-Dihydroxy-4-oxo-4H-chromen-2-yl)phenyl)propyl)triphenylphosphonium bromide], the IC50 was less than 20 µM in the experiment on breast cancer cell; less than 20 µM in the experiment on colon cancer cell; less than 20 µM in the experiment with leukaemia cell; less than 10 µM with prostate cancer cell; 1.42 µM with MDA-MB-468; 7 µM with parental H69 cells. Besides, the IC50 was found to be 8.6 µM in the experiment on LoVo; 3.66 µM in the experiment on LNCaP; 7.3 µM with PC-3; 8.18 µM with 22Rv1; 18.3 µM in the experiment on MCF-7; 1.43 µM in the experiment on HL-60. This compound also gave an IC50 with HCT-116 of 8.68 µM.
